According to patent US11834432B2, “Substituted amino six-membered nitric heterocyclic ring compound and preparation and use thereof” (SHANGHAI INSTITUTE OF MATERIA MEDICA, CHINESE ACADEMY OF …, priority 2016, dated 2023):
“And” between values parts separate entries of the source, which are not always exact repeats. Equal values may be shown once.

Tests used:
[1] = target: FGFR1 kinase domain recombinant protein (Homo sapiens (Human), UniProt P11362); test: Inhibition of receptor tyrosine kinase FGFR1 activity (ELISA); type: biochemical
Method: 1. Preliminary Evaluation Inhibition on Receptor Tyrosine Kinase FGFR1 Activity of Compound
1. […] The liquid from the well was discarded. The plate was washed for three times with T-PBS (0.1% Tween-20 in potassium-free PBS, 200 μL/well), 5 minutes for each time. The elisa plate was dried in 37° C. dryer for 1-2 hours.
2. 49 μL of ATP solution diluted in reaction buffer (50 mM HEPES pH 7.4, 50 mM MgCl2, 0.5 mM MnCl2, 0.2 mM Na3VO4, 1 mM DTT) was added into each well, and 1 μL of the test compound was added to each well, and then 50 μL of FGFR1 kinase domain recombinant protein diluted in reaction buffer was added to initiate the reaction, and two control wells without ATP were required for each experiment. The reaction was performed on a Shaker (100 rpm) at 37° C. for 1 hour. The liquid from the well was discarded, and the plate was washed with T-PBS for three times.
3. The antibody PY99 dilution (antibody diluted 1:500 in T-PBS with BSA 5 mg/mL) was added at 100 μL/well, and shaken for 0.5 hours on a 37° C. shaker. The liquid from the well was discarded, and the plate was washed with T-PBS for three times.
4. The horseradish peroxidase-labeled goat anti-mouse second antibody dilution (antibody diluted 1:2000 in T-PBS with BSA 5 mg/mL) was added at 100 μL/well, and shaken for 0.5 hours on a 37° C. shaker. The liquid from the well was discarded, and the plate was washed with T-PBS for three times.
5. 2 mg/mL OPD coloration solution (diluted with 0.1 M citric acid-sodium citrate buffer containing 0.03% H2O2 (pH=5.4)) was added at 100 μL/well, and reacted for 1-10 minutes at 25° C. in darkness.
6. The reaction was quenched with 50 μL/well of 2M H2SO4, and the plate was read using a tunable microplate microplate reader VERSAmax at 490 nm.
(§1) The IC50 values were obtained by four-parameter regression analysis using the software supplied with the microplate reader.

Pharmacokinetics in rats = type: in vivo; details: male, rat, plasma, SD rats
Method: Seven SD rats, male, weighing 200-220 g, were randomly divided into two groups, 4 or 3 in each group. Compound S10 was administrated by intragastric or intravenous administration.
Rats were fasted for 12 h before test, and had access to water ad libitum. The rats were uniformly fed 2 h after administration of.
Blood sample time point and sample preparation:
intragastric administration: 0.25, 0.5, 1.0, 2.0, 4.0, 6.0, 8.0 and 24 h after administration;
intravenous administration: 5 min, 0.25, 0.5, 1.0, 2.0, 4.0, 6.0, 8.0 and 24 h after administration;
0.3 mL of venous blood was collected at the above time points via the rat eye vein venous plexus, placed in a heparinized test tube, and centrifuged at 11000 rpm for 5 min, and plasma was separated and frozen in a −20° C. refrigerator.
S10 in rat plasma was determined by LC/MS/MS.
The pharmacokinetic parameters after administration were calculated by a non-compartmental model of WinNonlin 6.3 software (Pharsight, USA).
The peak concentration Cmax and the peak time Tmax are measured values; The area under the curve of the drug-time AUC0-t value: calculated by the trapezoidal method; AUC0-∞=AUC0-t+Ct/ke, Ct is the blood concentration of drug at the last measurable time point;
ke is the elimination rate constant;
Elimination half-life t1/2=0.693/ke;
Clearance rate CL=D/AUC0-∞;
Volume of steady state distribution Vss=CL×MRT;

[2] = test system: human gastric cancer SNU-16 subcutaneously transplanted tumor; test: Growth of subcutaneously transplanted tumor in human gastric cancer SNU-16 nude mice; type: in vivo
Method: The human gastric cancer SNU-16 cell strain was preserved in our laboratory.
S10 groups (30 mg/kg and 10 mg/kg) were orally administered once a day for 21 days; AZD4547 group (10 mg/kg) was administered orally once a day for 21 days; solvent control group was given the same amount of water for injection.

SNU16 cells = test: Inhibition of proliferation of SNU16 cells (CCK-8); type: cell-based; details: Homo sapiens, SNU-16, 72 h
Method: The inhibitory effect on proliferation of SNU16 cells of a compound was examined by CCK-8 Cell Counting Kit (Dojindo). The steps are as follows: SNUI 6 cells at Logarithmic growth phase were seeded in a 96-well culture plate at appropriate density, 90 ul for each well. After cultured overnight, different concentrations of drugs were added and treated for 72 h, while solvent control well was set (negative control). After 72 h, the influence of the compound on the proliferation of cells was observed by CCK-8 cell counting kit (Dojindo). 10 μL of CCK-8 reagent was added to each well. After incubated for 2-4 hours in a 37° C. incubator, the plate was read with SpectraMax 190 microplate reader at wavelength 450 nm.
as §1

[3] = test system: human lung cancer NCI-H1581 subcutaneously transplanted tumor; test: Growth of subcutaneously transplanted tumor in human lung cancer NCI-H1581 nude mice
Method: The cell strain was inoculated in the right axilla of the nude mice, and the amount of cells inoculated was 5×10^6/mouse to form transplanted tumor, which was directly inoculated and used.
The tumor tissue in the prosperous growth period was cut into 1.5 mm^3, and inoculated subcutaneously in the right axilla of the nude mice under aseptic conditions. The diameter of the transplanted tumor in the nude mice was measured with a vernier caliper, and the animals were randomly grouped when the average volume of tumors was about 150-160 mm^3. […] The solvent control group was given an equal amount of water for injection. The diameter of the transplanted tumor was measured twice a week during the entire experiment, and the body weight of the mice was also weighed. The calculation formula of tumor volume (TV) is: TV=1/2×a×b^2, where a and b respectively represent the length and width of the tumor. The relative tumor volume (RTV) was calculated based on the measured results and the formula was: RTV=Vt/V0, where V0 is the tumor volume measured at grouping and dosing (d0), and Vt is the tumor volume at each measurement.

ABL = ABL (Homo sapiens (Human), UniProt P00519); test: In vitro tyrosine kinase inhibition screening (ELISA); type: biochemical; details: 1 h
Method: 4. In Vitro Screening Test on Tyrosine Kinase Activity Inhibition Screening method: Enzyme-linked immunosorbent assay (ELISA) tyrosine kinase: Enzyme spectrum Time of action: 1 h

Chain of ABL (P00519 whole entry, species assumed): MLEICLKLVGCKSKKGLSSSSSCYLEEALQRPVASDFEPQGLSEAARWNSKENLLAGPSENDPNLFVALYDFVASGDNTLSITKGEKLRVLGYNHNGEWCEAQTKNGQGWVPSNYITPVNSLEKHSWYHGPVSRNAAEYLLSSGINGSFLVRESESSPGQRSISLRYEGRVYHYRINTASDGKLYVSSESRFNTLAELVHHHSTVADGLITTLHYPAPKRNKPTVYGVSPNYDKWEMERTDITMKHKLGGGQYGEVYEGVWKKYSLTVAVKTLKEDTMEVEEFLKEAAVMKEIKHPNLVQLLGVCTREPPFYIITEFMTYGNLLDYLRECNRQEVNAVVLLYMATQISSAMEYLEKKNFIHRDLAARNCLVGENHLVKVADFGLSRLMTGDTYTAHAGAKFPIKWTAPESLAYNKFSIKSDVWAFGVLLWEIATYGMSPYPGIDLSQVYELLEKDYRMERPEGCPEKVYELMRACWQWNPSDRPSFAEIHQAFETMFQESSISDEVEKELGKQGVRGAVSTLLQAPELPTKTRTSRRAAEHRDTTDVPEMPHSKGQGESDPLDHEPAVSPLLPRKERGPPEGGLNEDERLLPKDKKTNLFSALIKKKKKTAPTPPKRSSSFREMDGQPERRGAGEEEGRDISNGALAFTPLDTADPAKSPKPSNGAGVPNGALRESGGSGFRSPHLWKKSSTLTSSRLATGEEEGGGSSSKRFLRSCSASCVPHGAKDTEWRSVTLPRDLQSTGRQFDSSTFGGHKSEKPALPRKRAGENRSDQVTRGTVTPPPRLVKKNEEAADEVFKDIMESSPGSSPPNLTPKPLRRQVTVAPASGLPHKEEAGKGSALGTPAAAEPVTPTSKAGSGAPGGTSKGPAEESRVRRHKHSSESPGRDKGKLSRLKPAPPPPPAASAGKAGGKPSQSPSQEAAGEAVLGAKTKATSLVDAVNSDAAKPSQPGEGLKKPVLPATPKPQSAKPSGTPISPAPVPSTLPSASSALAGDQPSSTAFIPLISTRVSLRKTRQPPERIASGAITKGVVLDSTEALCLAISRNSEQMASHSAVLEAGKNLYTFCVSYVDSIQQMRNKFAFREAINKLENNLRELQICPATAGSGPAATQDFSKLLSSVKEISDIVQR
Chain of FGFR1 kinase domain recombinant protein (P11362 478-767): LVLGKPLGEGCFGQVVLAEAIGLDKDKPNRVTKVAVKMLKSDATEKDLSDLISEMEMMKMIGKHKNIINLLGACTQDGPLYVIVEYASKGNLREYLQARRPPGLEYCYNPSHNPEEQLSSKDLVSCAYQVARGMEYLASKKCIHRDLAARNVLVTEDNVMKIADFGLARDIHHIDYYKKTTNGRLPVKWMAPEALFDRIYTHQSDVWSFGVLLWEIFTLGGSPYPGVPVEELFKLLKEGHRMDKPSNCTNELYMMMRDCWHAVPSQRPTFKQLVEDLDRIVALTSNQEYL

## CNC(=O)c1cccc2cc(Oc3ccnc(NC(=O)c4ccc(N5C[C@@H](C)N[C@@H](C)C5)cc4)c3)ccc12 [Compound S10]
[1]
  IC50: < 10 nM
[1]; 1 h, read-out: Inhibition ratio (%) @ 0.1 μM
  inhibition at 0.1 µM: 94%
Pharmacokinetics in rats; oral, intragastric 10 mg/kg vs intravenous 5 mg/kg
  bioavailability: 79.6%
Pharmacokinetics in rats; po, intragastric 10 mg/kg
  AUC(0-t): 3430 ng·h/mL
  Cmax: 399 ng/mL
  Tmax: 4.5 h
  half-life: 3.55 h
Pharmacokinetics in rats; intravenous 5 mg/kg
  clearance: 40.8 mL/min/kg
  half-life: 3.69 h
Pharmacokinetics in rats; intravenous 5 mg/kg, read-out: Vss
  Vd: 11.3 L/kg
[2]; 10 mg/kg po qd/21, d0
  Body weight (g) d0: 19.9 g
  TV (mm^3, mean ± SD) d0: 106 ± 33 mm^3
[2]; 10 mg/kg po qd/21, d21
  Body weight (g) d21: 21.4 g
  RTV (mean ± SD): 3.48 ± 2.29
  T/C (%): 25.35% and 25%
  TV (mm^3, mean ± SD) d21: 322 ± 107 mm^3
[2]; 30 mg/kg po once a day for 21 days
  Body weight change, condition and mortality of mice during the experiment: average weight of mice in the S10 group (30 mg/kg) was decreased, but the mice were still in good condition and no mice died
[2]; 30 mg/kg po qd/21, d0
  Body weight (g) d0: 21.2 g
  TV (mm^3, mean ± SD) d0: 106 ± 22 mm^3
[2]; 30 mg/kg po qd/21, d21
  Body weight (g) d21: 17.0 g
  RTV (mean ± SD): 1.19 ± 0.38
  T/C (%): 8.67% and 9%
  TV (mm^3, mean ± SD) d21: 125 ± 47 mm^3
SNU16 cells
  IC50: 6.1 nM
SNU16 cells; 10 nM, 72 h, read-out: Inhibition ratio (%)
  inhibition at 0.01 µM: 59.6%
SNU16 cells; 100 nM, 72 h, read-out: Inhibition ratio (%)
  inhibition at 0.1 µM: 62.1%
SNU16 cells; 1000 nM, 72 h, read-out: Inhibition ratio (%)
  inhibition at 1 µM: 59.7%
[3]; 2.5 mg/kg po qd/14, d0
  Body weight (g) d0: 19.8 g
  TV (mm^3, mean SD) d0: 157 ± 43 mm^3
[3]; 2.5 mg/kg po qd/14, d14
  Body weight (g) d14: 21.8 g
  RTV (mean SD): 8.36 ± 2.17
  T/C (%): 40.19% and 40%
  TV (mm^3, mean SD) d14: 1287 ± 412 mm^3
[3]; 5 mg/kg po qd/14, d0
  Body weight (g) d0: 19.0 g
  TV (mm^3, mean SD) d0: 154 ± 53 mm^3
[3]; 5 mg/kg po qd/14, d14
  Body weight (g) d14: 21.5 g
  RTV (mean SD): 3.57 ± 0.91
  T/C (%): 17.18% and 17%
  TV (mm^3, mean SD) d14: 524 ± 122 mm^3
[3]; 10 mg/kg po qd/14, d0
  Body weight (g) d0: 19.9 g
  TV (mm^3, mean SD) d0: 155 ± 45 mm^3
[3]; 10 mg/kg po qd/14, d14
  Body weight (g) d14: 23.0 g
  RTV (mean SD): 2.09 ± 0.77
  T/C (%): 10.03% and 10%
  TV (mm^3, mean SD) d14: 338 ± 223 mm^3
[3]; 10, 5 and 2.5 mg/kg po once a day for two weeks
  Condition and mortality of animals during the experiment: the animals in each group were in good condition and there was no mice died
ABL; 10 nM
  Inhibition ratio (%) ABL: 17.5%
ABL; 1000 nM
  Inhibition ratio (%) ABL: 28.8%
